Read-outs that look alike come from different tables or passages of the source.
Columns and labels:
MRSA = conditions: cited from earlier work
[1] = tested on: gastrointestinal microbiota; conditions: mice
C. difficile ATCC 43255 [2] = experiment: Minimal inhibition concentration (MIC) in 96-well microtitre plates; type: cell-based, Clostridioides difficile; conditions: C. difficile ATCC 43255, 24 h anaerobic incubation
Text: C. difficile ATCC 43255, previously isolated from an abdominal wound, was used to assess the anti-clostridioides activity of JBC 1847. The strain was stored in reinforced clostridial medium (Oxoid, Roskilde, Denmark) in 15% glycerol at -[…] until use and grown anaerobically on ChromID® C. difficile plates (bioMérieux, Ballerup, Denmark).

fecal bacterial count = experiment: Four-day oral treatment: CFU per gram feces by 16S rRNA qPCR; type: in vivo; conditions: mice; for average CFU/g fecal sample after treatment: four days
Caco-2 cell monolayers [3] = tested on: Caco-2 cell monolayers
[4] = tested on: Methicillin resistant Staphylococcus aureus (MRSA); conditions: cited from earlier work
C. difficile ATCC 43255 [5] = experiment: Minimum bactericidal concentration (MBC), plating from MIC wells; conditions: C. difficile ATCC 43255, ≥3 log reduction of inoculum
Description: Minimum bactericidal concentration (MIC) values were defined as the lowest concentrations of test compounds causing ≥3 log reductions of the initial cell inocula (∼ 10^5 CFU/mL in the final assay). Briefly, 100 μl from each well of the MIC assay (after incubation) were plates on ChromID® plates. After incubation for 24 h, viable counts were enumerated on ChromID® plates. Both the MIC and MBC were conducted with three biological replicates.

Caco-2 cell monolayers [6] = experiment: MTS/PMS cell proliferation (metabolic activity) assay; type: cell-based
Description: The cell proliferation assay (MTS/PMS; [3-(4,5-dimethylthiazol-2-yl)-5-(3-carboxymethoxyphenyl)-2-(4-sulfophenyl)-2H-tetrazolium, inner salt; MTS] and an electron coupling reagent (phenazine methosulfate) PMS) assay was performed by incubating the Caco-2 cell monolayers with 400 μL of a PMS/MTS solution in the apical compartment and 500 μL supplemented HBSS in the basolateral chamber (according to manufacturer’s instructions) for 60 minutes at 37°C and circular rotation (50 rpm). After incubation, 2×100 μL samples were taken from each monolayer and the absorbance at 492 nm in a 96-well plate.

Caco-2 cell monolayers [7] = experiment: LDH release assay; type: cell-based
Description: For analysis of the LDH activity, the samples taken from the apical compartment after the exposure experiment were diluted 5-fold and analyzed in the LDH assay according to manufacturer’s instructions. Briefly, the assay consisted of mixing the diluted samples with different assay reagents followed by incubation at room temperature for 30 min and the absorbance at 492 nm as a measure for LDH activity. A lysate of Caco-2 monolayers (prepared by suspending Caco-2 cell monolayers in purified water) was included as a positive control for maximal response in the assay.

C. difficile = conditions: previously shown; cited from earlier work

## CC(C)=CCCC(C)CC[N+](C)(C)CCCN1c2ccccc2Sc2ccccc21 (stereo not shown) [JBC 1847]
MRSA
  bacterial load of MRSA in wound model: highly effective in decreasing the bacterial load
[1]; especially small intestine (Fig 5)
  tendency in Lactobacillus spp abundance: concentration-depended increase
[1]; exposure trial
  consistency of the fecal material: No changes
C. difficile ATCC 43255 [2]
  MIC: 4 µg/mL
Fecal bacterial count; 20 mg/kg bw
  average CFU/g fecal sample after treatment: 4.4 ×10^9 CFU/g
Fecal bacterial count; 100 mg/kg bw
  average CFU/g fecal sample after treatment: 6.8 × 10^9 CFU/g
Fecal bacterial count; p = 0.51
  change in CFU/g fecal sample after treatment: no significant changes
Caco-2 cell monolayers [3]; concentrations up to seven times MIC
  effect on TEER: did not affect the TEER negatively
Caco-2 cell monolayers [3]; concentrations up to seven times the minimal bactericidal concentration
  cytotoxicity in Caco-2 cell-line assays: indication of toxicity was not observed
[4]
  MIC against MRSA compared to the mother compound, promazine: lower the minimal inhibition concentration (MIC) remarkably
C. difficile ATCC 43255 [5]
  MBC: 4 µg/mL
Caco-2 cell monolayers [6]; 29 μg/mL
  MTS/PMS response vs buffer controls: not significantly reduced
Caco-2 cell monolayers [6]; 58.1 μg/mL (100 μM)
  MTS/PMS response (metabolic activity) vs buffer control: statistically significant reduction
NMRI female mice; mice, oral
  dose tolerated without any clinical signs of discomfort: up to 100 mg/kg bw
NMRI female mice; mouse, in vivo, 25 mg/kg
  clinical score of discomfort: 1
NMRI female mice; mouse, in vivo, 100 mg/kg
  clinical score of discomfort: 0
NMRI female mice; mouse, in vivo, po, 100 mg/kg
  tolerance of two doses: tolerated well
Caco-2 cell monolayers [7]; 29 μg/mL (50 μM)
  LDH release compared to buffer control: significantly higher
Caco-2 cell monolayers [7]; 29 μg/mL (50 μM), listed as JBC1 8473
  LDH release compared to buffer control: statistically significant increase
Caco-2 cell monolayers [7]; 58.1 μg/ml in Fig 3
  LDH release compared to buffer control: significantly higher
Caco-2 cell monolayers [7]; 58.1 μg/ml in Fig 3, listed as JBC1 8473
  LDH release compared to buffer control: statistically significant increase

## CSc1ccc2c(c1)N(CCC1CCCCN1C)c1ccccc1S2 (stereo not shown) [Thioridazine]
C. difficile
  antimicrobial activity against C. difficile: antimicrobial activity

— paper PMC8486139, “A new phenothiazine derivate is active against Clostridioides difficile and shows low cytotoxicity” (PLoS ONE, 2021)
